Assay results: patent publication US8969325B2, “TRPV1 antagonists” (AbbVie Inc., priority 2011, dated 2015)

Assays:
[1] = molecular target: T1, human TRPV1 (Homo sapiens (Human), UniProt Q8NER1); experiment: Capsaicin Activation Assay (intracellular Ca2+, FLIPR); assay type: cell-based; settings: recombinant HEK293 cells expressing hTRPV1, 50 nM capsaicin
Method: (Logan, Utah). Dulbecco's phosphate-buffered saline (D-PBS) (with 1 mg/mL glucose and 3.6 mg/l Na pyruvate, without phenol red), L-glutamine, hygromycin B, and Lipofectamine® were obtained from Life Technologies (Grand Island, N.Y.). G418 sulfate was obtained from Calbiochem-Novabiochem Corp. (San Diego, Calif.). […] (St. Louis, Mo.). […] The cDNA for human TRPV1 (hTRPV1) was isolated by reverse transcriptase-polymerase chain reaction (RT-PCR) from human small intestine poly A+ RNA supplied by Clontech (Palo Alto, Calif.) using primers designed surrounding the initiation and termination codons identical to the published sequences (Hayes et al. […] The resulting cDNA PCR products were subcloned into pCIneo mammalian expression vector (Promega) and fully sequenced using fluorescent dye-terminator reagents (Prism, PerkinElmer Applied Biosystems Division) and a PerkinElmer Applied Biosystems Model 373 DNA sequencer or Model 310 genetic analyzer. Expression plasmids encoding the hTRPV1 cDNA were transfected into HEK293 cells using Lipofectamine®. Forty-eight hours after transfection, the neomycin-resistant cells were selected with growth medium containing 800 μg/mL Geneticin (Life Technologies, formerly Gibco BRL). Surviving individual colonies were isolated and screened for TRPV1 activity. […] Compound stocks, 10 mM, were prepared in DMSO, and diluted serially across a 384-well plate using a Bravo BenchCel workstation (Agilent Technologies, Santa Clara, Calif.). […] On the day prior to the experiment, the recombinant HEK293 cells expressing human TRPV1 (hTRPV1) were removed from tissue culture flasks and plated in growth medium into black-walled clear-bottom 384-well Biocoat™ poly-D-lysine assay plates (BD Biosciences, Bedford, Mass.) using a Multidrop® dispenser (ThermoScientific, Waltham, Mass.). […] Molecular Devices, Sunnyvale, Calif.) was added to each well using the Multidrop® dispenser. […] Fluorescence readings were made at 1 to 5 second intervals over the course of the experimental run.

[2] = molecular target: T1, human TRPV1; experiment: Acid Activation Assay (pH 5.0, intracellular Ca2+, FLIPR); assay type: cell-based; settings: percentage of the maximal pH 5.0-induced response remaining; recombinant HEK293 hTRPV1 cells; maximum concentration tested 37.5 μM
Method: Dulbecco's modified Eagle's medium (DMEM) with 4.5 m g/mL D-glucose, fetal bovine serum, L-glutamine, and 2-morpholinoethanesulfonic acid (MES) were purchased from Sigma-Aldrich Co. (St. Louis, Mo.). Dulbecco's phosphate-buffered saline (DPBS) with Ca^2+, Mg^2+, and 1 mg/mL D-glucose (pH 7.4), Geneticin®, 0.25% trypsin-1 mM EDTA, and penicillin-streptomycin were purchased from Invitrogen Corp. (Carlsbad, Calif.). The FLIPR® Calcium 4 assay kit was purchased from Molecular Devices (Sunnyvale, Calif.).
The cDNA for human TRPV1 (hTRPV1) was isolated by reverse transcriptase-polymerase chain reaction (RT-PCR) from human small intestine poly A+ RNA supplied by Clontech (Palo Alto, Calif.) using primers designed surrounding the initiation and termination codons identical to the published sequences (Hayes et al. Pain 2000, 88, 205-215). The resulting cDNA PCR products were subcloned into pCIneo mammalian expression vector (Promega) and fully sequenced using fluorescent dye-terminator reagents (Prism, PerkinElmer Applied Biosystems Division) and a PerkinElmer Applied Biosystems Model 373 DNA sequencer or Model 310 genetic analyzer. Expression plasmids encoding the hTRPV1 cDNA were transfected into HEK293 cells using Lipofectamine®. Forty-eight hours after transfection, the neomycin-resistant cells were selected with growth medium containing 800 μg/mL Geneticin (Life Technologies, formerly Gibco BRL). Surviving individual colonies were isolated and screened for TRPV1 activity. Cells expressing recombinant TRPV1 were maintained at 37° C. in DMEM containing 4 mM L-glutamine, 300 μg/mL G418 (Calbiochem) and 10% fetal bovine serum under a humidified 5% CO2 atmosphere.
The functional activity of compounds at the TRPV1 receptor was determined by measurement of intracellular Ca^2+ levels ([Ca^2+]i) using the Fluorescence Imaging Plate Reader (FLIPR)TETRA®. All compounds were tested over a 12-point one-half-log concentration range with 37.5 μM being the maximum concentration tested. Compound stocks, 10 mM, were prepared in DMSO, and diluted serially across a 384-well plate using a Bravo BenchCel workstation (Agilent Technologies, Santa Clara, Calif.). On the day prior to the experiment, the recombinant HEK293 cells expressing human TRPV1 (hTRPV1) were removed from tissue culture flasks and plated in growth medium into black-walled clear-bottom 384-well Biocoat™ poly-D-lysine assay plates (BD Biosciences, Bedford, Mass.) using a Multidrop® dispenser (ThermoScientific, Waltham, Mass.). On the day of the experiment growth medium was removed, and the no-wash FLIPR® Calcium-4 dye (λEX=470-495 nm, λEM=515-575 nm) was added to each well using the Multidrop® dispenser. The plated cells were incubated for 90-120 min in the dark at 25° C. The test compounds dissolved in DMSO were then added to the plates using an Agilent Bravo workstation (Agilent Technologies Inc., Santa Clara, Calif.). Three minutes later, a pH 5.0 solution was added to each well. Reagents were delivered at a rate of 40 μL/sec, and the final assay volume was 80 μL. Acidic pH solutions were prepared by titration of DPBS/MES with 1 N HCl. The intensity of the fluorescence was captured and digitally transferred to an interfaced PC. The maximum peak measured for the concentration range tested was used to calculate the corresponding peak increase in fluorescence over baseline (relative fluorescence units) which was expressed as the percentage (max % remain) of the maximal pH 5.0-induced response.
Table 1 reports the percentage (max % remain) of the maximal pH 5.0-induced response measured for the compounds tested in the recombinant HEK293 cell assay. Most of the compounds tested inhibited calcium flux only partially following TRPV1 activation by the pH 5.0 solution.

T1 sequence (Q8NER1 whole entry): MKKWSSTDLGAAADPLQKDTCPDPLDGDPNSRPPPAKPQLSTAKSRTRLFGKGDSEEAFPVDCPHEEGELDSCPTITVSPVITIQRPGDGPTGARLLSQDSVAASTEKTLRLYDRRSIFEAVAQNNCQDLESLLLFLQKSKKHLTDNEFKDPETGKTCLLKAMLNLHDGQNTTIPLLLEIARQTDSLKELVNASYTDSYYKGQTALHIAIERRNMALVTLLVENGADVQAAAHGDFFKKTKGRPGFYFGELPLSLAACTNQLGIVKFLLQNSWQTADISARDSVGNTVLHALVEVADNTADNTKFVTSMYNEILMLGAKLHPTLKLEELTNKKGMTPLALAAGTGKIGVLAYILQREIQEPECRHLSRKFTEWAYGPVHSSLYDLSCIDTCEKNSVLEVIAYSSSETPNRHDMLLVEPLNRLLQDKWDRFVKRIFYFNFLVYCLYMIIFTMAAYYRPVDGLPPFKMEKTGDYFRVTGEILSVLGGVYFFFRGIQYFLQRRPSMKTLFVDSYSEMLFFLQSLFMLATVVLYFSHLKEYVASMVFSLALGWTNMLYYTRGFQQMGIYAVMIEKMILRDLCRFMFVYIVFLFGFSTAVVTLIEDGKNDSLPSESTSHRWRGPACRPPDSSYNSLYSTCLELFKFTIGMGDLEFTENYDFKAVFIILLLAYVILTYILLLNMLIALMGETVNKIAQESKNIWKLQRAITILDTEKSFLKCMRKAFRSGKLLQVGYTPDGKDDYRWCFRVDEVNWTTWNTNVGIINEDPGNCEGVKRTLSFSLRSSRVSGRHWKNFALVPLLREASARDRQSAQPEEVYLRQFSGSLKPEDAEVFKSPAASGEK

| IC50 [1] | human TRPV1 H^+ (max % remain) [2] | SMILES |
| --- | --- | --- |
| 130 nM | 16% | CN1Cc2ccc(NC(=O)N[C@@H]3CC(CF)(CF)Oc4cc(Cl)ccc43)cc2NC1=O [Example 170, 1-[(4R)-7-chloro-2,2-bis(fluoromethyl)-3,4-dihydro-2H-chromen-4-yl]-3-(3-methyl-2-oxo-1,2,3,4-tetrahydroquinazolin-7-yl)urea] |
| 140 nM | 32% | CC1(C)C[C@@H](NC(=O)Nc2ccc3c(c2)NC(=O)CC3)c2cc(F)ccc2O1 [Example 232, 1-[(4R)-6-fluoro-2,2-dimethyl-3,4-dihydro-2H-chromen-4-yl]-3-(2-oxo-1,2,3,4-tetrahydroquinolin-7-yl)urea] |
| 220 nM | 86% | CCC1(CC)C[C@@H](NC(=O)Nc2ccc3c(c2)N(C)C(=O)CC3)c2cc(F)ccc2O1 [Example 270, 1-[(4R)-2,2-diethyl-6-fluoro-3,4-dihydro-2H-chromen-4-yl]-3-(1-methyl-2-oxo-1,2,3,4-tetrahydroquinolin-7-yl)urea] |
| 1800 nM | 1% | O=C(Nc1ccc2c(c1)NC(=O)N(CCO)C2)N[C@@H]1CCOc2c1cccc2C(F)(F)F [Example 53, 1-[3-(2-hydroxyethyl)-2-oxo-1,2,3,4-tetrahydroquinazolin-7-yl]-3-[(4R)-8-(trifluoromethyl)-3,4-dihydro-2H-chromen-4-yl]urea] |
| 220 nM | 50% | O=C1CCc2ccc(NC(=O)N[C@@H]3CC(CF)(CF)Oc4c(F)cccc43)cc2N1 [Example 216, 1-[(4R)-8-fluoro-2,2-bis(fluoromethyl)-3,4-dihydro-2H-chromen-4-yl]-3-(2-oxo-1,2,3,4-tetrahydroquinolin-7-yl)urea] |
| 97 nM | 3% | CC1(C)C[C@@H](NC(=O)Nc2ccc3c(c2)NC(=O)N(CCO)C3)c2ccc(Br)cc2O1 [Example 63, 1-[(4R)-7-bromo-2,2-dimethyl-3,4-dihydro-2H-chromen-4-yl]-3-[3-(2-hydroxyethyl)-2-oxo-1,2,3,4-tetrahydroquinazolin-7-yl]urea] |
| 17 nM | 19% | CN1C(=O)NCc2c(NC(=O)N[C@@H]3C[C@](C)(C(F)F)Oc4cc(Cl)ccc43)cccc21 [Example 10, 1-[(2R,4R)-7-chloro-2-(difluoromethyl)-2-methyl-3,4-dihydro-2H-chromen-4-yl]-3-(1-methyl-2-oxo-1,2,3,4-tetrahydroquinazolin-5-yl)urea] |
| 210 nM | 61% | CCCC1(CCC)C[C@@H](NC(=O)Nc2ccc3c(c2)NC(=O)N(C)C3)c2cc(F)ccc2O1 [Example 185, 1-[(4R)-6-fluoro-2,2-dipropyl-3,4-dihydro-2H-chromen-4-yl]-3-(3-methyl-2-oxo-1,2,3,4-tetrahydroquinazolin-7-yl)urea] |
| 44 nM | 77% | CN1C(=O)CCc2ccc(NC(=O)N[C@H]3CCOc4cc(OC(F)(F)F)ccc43)cc21 [Example 276, 1-(1-methyl-2-oxo-1,2,3,4-tetrahydroquinolin-7-yl)-3-[(4S)-7-(trifluoromethoxy)-3,4-dihydro-2H-chromen-4-yl]urea] |
| 15 nM | 20% | CN1C(=O)NCc2c(NC(=O)N[C@@H]3CC4(CCC4)Oc4ccc(F)cc43)cccc21 [Example 154, 1-[(4R)-6-fluoro-3,4-dihydrospiro[chromene-2,1′-cyclobutan]-4-yl]-3-(1-methyl-2-oxo-1,2,3,4-tetrahydroquinazolin-5-yl)urea] |
| 62 nM | 75% | O=C(Nc1ccc2c(c1)NC(=O)C(N1CCOCC1)C2)N[C@@H]1CC(CF)(CF)Oc2cc(Cl)ccc21 (stereo partly drawn) [Example 300, 1-[(4R)-7-chloro-2,2-bis(fluoromethyl)-3,4-dihydro-2H-chromen-4-yl]-3-[3-(morpholin-4-yl)-2-oxo-1,2,3,4-tetrahydroquinolin-7-yl]urea] |
